The target of this test is T1, Adenosine deaminase (Bos taurus, UniProt P56658).
T1 sequence (P56658 whole entry): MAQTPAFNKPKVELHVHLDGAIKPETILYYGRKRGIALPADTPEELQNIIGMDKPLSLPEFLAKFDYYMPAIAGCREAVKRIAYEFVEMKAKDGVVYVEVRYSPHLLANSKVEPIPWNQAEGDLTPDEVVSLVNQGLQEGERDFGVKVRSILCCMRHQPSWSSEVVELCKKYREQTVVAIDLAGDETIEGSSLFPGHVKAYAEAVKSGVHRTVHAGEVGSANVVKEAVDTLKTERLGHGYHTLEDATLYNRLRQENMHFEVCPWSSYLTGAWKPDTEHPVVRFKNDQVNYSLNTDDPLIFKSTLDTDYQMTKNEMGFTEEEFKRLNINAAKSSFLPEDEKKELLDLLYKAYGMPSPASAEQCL
The test can be described thus: ADA Enzyme Inhibition Assay. The settings on record: pH 7.2; 30 °C. Here is the method:
The activity of ADA was determined spectrophotometrically by monitoring the change in absorbance at 262 nm, due to the deamination of adenosine catalyzed by the enzyme. The change in adenosine concentration per min was determined using a Beckman DU-64 kinetics software program (Solf Pack TM Module). To correct for the background change in absorption, a reference blank containing all the assay components except the substrate was prepared. Each inhibitor concentration was tested in triplicate. The IC50 values were determined by linear regression analysis of dose-response curves. The Ki values were calculated from IC50 values by means of the Cheng and Prusoff.

The structures appear in SMILES notation. pKi: −log10 of the molar value.

With `O=C(Nc1ccc(Cc2ccccc2)cc1)Nc1ccc(Cn2cc3c(=O)[nH]cnc3n2)cc1` [1-(4-benzylphenyl)-3-[4-({4-oxo-2H,4H,5H-pyrazolo[3,4-d]pyrimidin-2-yl}methyl)phenyl]urea], the pKi was 6.73.

Turning to `O=C(Nc1ccc(F)cc1)Nc1ccc(Cn2cc3c(=O)[nH]cnc3n2)cc1` [1-(4-fluorophenyl)-3-[4-({4-oxo-2H,4H,5H-pyrazolo[3,4-d]pyrimidin-2-yl}methyl)phenyl]urea], the pKi was 8.94.

`COc1ccc(NC(=O)Nc2ccc(Cn3cc4c(=O)[nH]cnc4n3)cc2)cc1` [1-(4-methoxyphenyl)-3-[4-({4-oxo-2H,4H,5H-pyrazolo[3,4-d]pyrimidin-2-yl}methyl)phenyl]urea] had a pKi of 7.55. `O=C(Nc1ccc(Cn2cc3c(=O)[nH]cnc3n2)cc1)Nc1ccc(OCc2ccccc2)cc1` [1-[4-(benzyloxy)phenyl]-3-[4-({4-oxo-2H,4H,5H-pyrazolo[3,4-d]pyrimidin-2-yl}methyl)phenyl]urea] showed a pKi of 6.97. Then `CN(C)c1ccc(NC(=O)Nc2ccc(Cn3cc4c(=O)[nH]cnc4n3)cc2)cc1` [1-[4-(dimethylamino)phenyl]-3-[4-({4-oxo-2H,4H,5H-pyrazolo[3,4-d]pyrimidin-2-yl}methyl)phenyl]urea], with 8.70; and `O=C(NCc1ccccc1)Nc1ccc(Cn2cc3c(=O)[nH]cnc3n2)cc1` [1-benzyl-3-[4-({4-oxo-2H,4H,5H-pyrazolo[3,4-d]pyrimidin-2-yl}methyl)phenyl]urea], with 7.07. For `O=C(Nc1ccc(Cn2cc3c(=O)[nH]cnc3n2)cc1)Nc1ccc(C(F)(F)F)cc1` [3-[4-({4-oxo-2H,4H,5H-pyrazolo[3,4-d]pyrimidin-2-yl}methyl)phenyl]-1-[4-(trifluoromethyl)phenyl]urea] the value was 9.80; for `O=C(Nc1ccccc1)Nc1ccc(Cn2cc3c(=O)[nH]cnc3n2)cc1` [3-[4-({4-oxo-2H,4H,5H-pyrazolo[3,4-d]pyrimidin-2-yl}methyl)phenyl]-1-phenylurea], 8.62; for `O=C(Nc1ccc(Cn2cc3c(=O)[nH]cnc3n2)cc1)c1ccc(F)cc1` [4-fluoro-N-[4-({4-oxo-2H,4H,5H-pyrazolo[3,4-d]pyrimidin-2-yl}methyl)phenyl]benzamide], 9.02.

For the molecule `COc1ccc(C(=O)Nc2ccc(Cn3cc4c(=O)[nH]cnc4n3)cc2)cc1` [4-methoxy-N-[4-({4-oxo-2H,4H,5H-pyrazolo[3,4-d]pyrimidin-2-yl}methyl)phenyl]benzamide], the pKi is 7.81. Molecule `CCCCCC[C@H]([C@H](C)O)n1cnc2c(N)ncnc21` [(2S,3R)-3-(6-amino-9H-purin-9-yl)nonan-2-ol] showed a pKi of 8.94. Regarding `O=C(Cc1ccccc1)Nc1ccc(Cn2cc3c(=O)[nH]cnc3n2)cc1` [N-[4-({4-oxo-2H,4H,5H-pyrazolo[3,4-d]pyrimidin-2-yl}methyl)phenyl]-2-phenylacetamide], the pKi was 7.32. Consider `O=C(Nc1ccc(Cn2cc3c(=O)[nH]cnc3n2)cc1)c1ccc(C(F)(F)F)cc1` [N-[4-({4-oxo-2H,4H,5H-pyrazolo[3,4-d]pyrimidin-2-yl}methyl)phenyl]-4-(trifluoromethyl)benzamide], for which the pKi was 9.29. `O=C(Nc1ccc(Cn2cc3c(=O)[nH]cnc3n2)cc1)c1ccccc1` [N-[4-({4-oxo-2H,4H,5H-pyrazolo[3,4-d]pyrimidin-2-yl}methyl)phenyl]benzamide] showed a pKi of 7.90.

In general, pKi refers to the Ki on a negative log10 scale, so that one unit is a factor of ten. Higher therefore signals a small Ki.

The values are drawn from BindingDB's records for doi:10.1021/jm801427r (Universita Di Pisa, 2009).
